From patent US12161694B2, “Methods and compositions for regulating innate lymphoid cell inflammatory responses” (The Broad Institute, Inc., priority 2017, dated 2024)
“Also recorded” adds a separate entry of the source. Where no end group is shown, it is not given here.

Test system: IL-5 and IL-13 in lung and BALF
Test: In vivo ILC activation (intranasal), lung analysis: Il5, Il13, Il17rb mRNA in lung mononuclear cells (qPCR), IL-5/IL-13 in BALF (LegendPlex)
Set-up: species or system mouse
Method: Mice and in vivo ILC activation. C57Bl/6J mice were purchased from the Jackson Laboratory. Nmur1-LacZ reporter mice with a LacZ cassette knocked into the Nmur1 locus were rederived from Nmur1^tm1.1(KOMP)Vleg sperm obtained from the trans-NIH Knock-Out Mouse Project (KOMP) Repository. Mice were housed under specific-pathogen-free conditions. For experiments, mice were matched for sex and age, and most mice were 6-10 weeks old. […] The total administered volume was 20 μl for all conditions. Mice were randomly assigned to treatment groups after matching for sex and age. […] Mice were treated intranasally with 10 μg HDM on day 0, 7, 8, and 9, prior to sacrifice on day 10. All experiments were conducted in accordance with animal protocols approved by the Harvard Medical Area Standing Committee on Animals or BWH IACUC.
Lung analysis. Mice were sacrificed and perfused with cold PBS. Where indicated, after perfusion, broncho alveolar lavage (BAL) was obtained by injecting 1.5 ml cold PBS into the lungs via a secured tracheal cannula. BALF was centrifuged, and the supernatant was used for analyzing cytokine levels and the cell pellet was resuspended, counted, and used for flow cytometry. Following BAL, lung lobes were dissected. The post-caval lobe was fixed in buffered formalin for histological analysis. Single cell suspensions of the remaining lung parenchymal tissue were prepared with the GentleMACS lung dissociation kit (Miltenyi Biotec) according to the manufacturer's instructions. Where indicated, cells were diluted in 10% Trypan Blue and viable cells counted using a hemocytometer.
Quantitative real-time PCR. RNA was isolated using RNeasy Plus Mini Kit (Qiagen) and reverse transcribed to cDNA with iScript cDNA Synthesis Kit (Bio-Rad). Gene expression was analyzed by quantitative real-time PCR on a ViiA7 System (Thermo Fisher Scientific) using TaqMan Fast Advanced Master Mix (Thermo Fisher Scientific) with the following primer/probe sets: IL-5 (Mm00439646_m1), IL-13 (Mm00434204_m1), IL-17RB (Mm00444709_m1), Nmur1 (Mm04207994 m1), Nmur2 (Mm00600704_m1), and β-Actin (Applied Biosystems). Expression values were calculated relative to β-Actin detected in the same sample by duplex qPCR.
Cytokine quantification. Cytokine concentrations in BAL fluid, lung and supernatant of in vitro ILC cultures were analyzed by the LegendPlex Mouse Th Cytokine Panel (13-plex) (BioLegend) according to the manufacturer's instructions and analyzed on a FACS Calibur (BD Biosciences).
Mice and in vivo ILC activation. C57Bl/6J mice were purchased from the Jackson Laboratory. Nmur1-LacZ reporter mice with a LacZ cassette knocked into the Nmur1 locus were rederived from Nmur1^tm1.1(KOMP)Vleg sperm obtained from the trans-NIH Knock-Out Mouse Project (KOMP) Repository. NMU-deficient mice (NMU-KO) were rederived from B6.129S2-Nmu<tm1Mko> embryos from the RIKEN BioResource Center. For experiments with Nmur1-LacZ (Nmur1-KO) and NMU-KO mice, littermates that were either homozygous or heterozygous for the wild type allele were used as controls. Mice were housed under specific-pathogen-free conditions. For experiments, mice were matched for sex and age, and most mice were 6-10 weeks old. […] The total administered volume was 20 μl for all conditions. Mice were randomly assigned to treatment groups after matching for sex and age. […]
Lung analysis. […] BALF was centrifuged, and the supernatant was used for analyzing cytokine levels and the cell pellet was resuspended, counted, and used for flow cytometry. […]

For “Neuromedin U (FRVDEEFQSPFASQSRGYFLFRPRN-NH2; listed as Homo sapiens) [NMU, neuropeptide ligand of Nmur1 (US Biological)]”, the “IL-33-induced lung inflammation with NMU” value (250 ng IL-33 and 10 μg NMU (FIG. 11)) was “little impact; also recorded: does not significantly amplify”, the “allergic lung inflammation induced by the substance alone” value (NMU 20 μg intranasally for 3 consecutive days, no alarmin) was “little effect; also recorded: minimal” and the “IL-5 protein in BALF” value (NMU alone 20 μg intranasally for 3 days, LegendPlex) was “only trace quantities”. For the same substance, the “IL-25-induced allergic airway inflammation with NMU” value (NMU co-administered with IL-25) was “dramatically enhanced; also recorded: amplifies” and the “Il5 and Il13 mRNA expression in lung (lung mononuclear cells)” value (intranasal daily for 3 days (500 ng IL-25, 20 μg NMU), qPCR) was “did not cause a significant increase”.
